Where two headings read alike, the source gives them in different places.
Molecular target: NR1/NR2A (Homo sapiens (Human), UniProt Q05586+Q12879)
Test: FDSS Ca2+ influx inhibition assay in HEK293 cells expressing NR1/NR2A
Format: cell-based
Settings: 3 μM glutamate, 3 μM glycine, 1 mM Ca2+
Procedure: Cell Culture and plating: HEK293 cells expressing NR1/NR2A (Chantest, Cleveland, Ohio) were grown to 70-80% confluency as an adherent monolayer in standard tissue culture flasks at 37° C., 5% CO2 per supplier's instructions.
After induction, cell culture medium was removed and cells were rinsed once with Ca^2+ and Mg^2+-free Dulbecco's phosphate buffered saline. Cells were then removed from the flask using TrypLE™ Express (Life Technologies) according to the manufacturer's instructions and collected to 50 ml centrifuge tubes. Following two washes in Ca^2+/Mg^2+-free HBSS with 20 mM HEPES (HHnoCa), cells were counted and viability assessed using trypan blue. To load cells with Ca^2+-sensitive dye, they were resuspended in fluo-8 plus Component B (AAT Bioquest Products) diluted in HHnoCa and incubated 15 minutes at 37° C., followed by 30 minutes at room temp (in dark). Cells were then washed and resuspended in HHnoCa to remove extracellular dye and plated in 384-well plates (Falcon, uncoated) at 20,000-30,000 cells/well in a final volume of 25 μL/well.
FDSS Assay: To each well of the plate, 10 μL test compound, control (MK801) or HHnoCa buffer was added to a final concentration of 10 μM with a final concentration of DMSO of 0.1%. Following 10 minutes pre-incubation in the dark, plates are loaded onto the Hamamatsu FDSS 6000. After collecting baseline fluorescence images, 3 μM glutamate, 3 μM glycine, and 1 mM Ca^2+ in HHnoCa buffer is added to each well, and Ca^2+ is recorded for 3 minutes. Data were processed by computing ratio of fluorescence at the end of data collection to baseline fluorescence to assess degree of Ca^2+ influx inhibition relative to that observed in MK801.

[1] = inhibition relative to MK801, read-out: NR2A IC50

Chain of NR1/NR2A (Q12879 23-1464, other chains not shown): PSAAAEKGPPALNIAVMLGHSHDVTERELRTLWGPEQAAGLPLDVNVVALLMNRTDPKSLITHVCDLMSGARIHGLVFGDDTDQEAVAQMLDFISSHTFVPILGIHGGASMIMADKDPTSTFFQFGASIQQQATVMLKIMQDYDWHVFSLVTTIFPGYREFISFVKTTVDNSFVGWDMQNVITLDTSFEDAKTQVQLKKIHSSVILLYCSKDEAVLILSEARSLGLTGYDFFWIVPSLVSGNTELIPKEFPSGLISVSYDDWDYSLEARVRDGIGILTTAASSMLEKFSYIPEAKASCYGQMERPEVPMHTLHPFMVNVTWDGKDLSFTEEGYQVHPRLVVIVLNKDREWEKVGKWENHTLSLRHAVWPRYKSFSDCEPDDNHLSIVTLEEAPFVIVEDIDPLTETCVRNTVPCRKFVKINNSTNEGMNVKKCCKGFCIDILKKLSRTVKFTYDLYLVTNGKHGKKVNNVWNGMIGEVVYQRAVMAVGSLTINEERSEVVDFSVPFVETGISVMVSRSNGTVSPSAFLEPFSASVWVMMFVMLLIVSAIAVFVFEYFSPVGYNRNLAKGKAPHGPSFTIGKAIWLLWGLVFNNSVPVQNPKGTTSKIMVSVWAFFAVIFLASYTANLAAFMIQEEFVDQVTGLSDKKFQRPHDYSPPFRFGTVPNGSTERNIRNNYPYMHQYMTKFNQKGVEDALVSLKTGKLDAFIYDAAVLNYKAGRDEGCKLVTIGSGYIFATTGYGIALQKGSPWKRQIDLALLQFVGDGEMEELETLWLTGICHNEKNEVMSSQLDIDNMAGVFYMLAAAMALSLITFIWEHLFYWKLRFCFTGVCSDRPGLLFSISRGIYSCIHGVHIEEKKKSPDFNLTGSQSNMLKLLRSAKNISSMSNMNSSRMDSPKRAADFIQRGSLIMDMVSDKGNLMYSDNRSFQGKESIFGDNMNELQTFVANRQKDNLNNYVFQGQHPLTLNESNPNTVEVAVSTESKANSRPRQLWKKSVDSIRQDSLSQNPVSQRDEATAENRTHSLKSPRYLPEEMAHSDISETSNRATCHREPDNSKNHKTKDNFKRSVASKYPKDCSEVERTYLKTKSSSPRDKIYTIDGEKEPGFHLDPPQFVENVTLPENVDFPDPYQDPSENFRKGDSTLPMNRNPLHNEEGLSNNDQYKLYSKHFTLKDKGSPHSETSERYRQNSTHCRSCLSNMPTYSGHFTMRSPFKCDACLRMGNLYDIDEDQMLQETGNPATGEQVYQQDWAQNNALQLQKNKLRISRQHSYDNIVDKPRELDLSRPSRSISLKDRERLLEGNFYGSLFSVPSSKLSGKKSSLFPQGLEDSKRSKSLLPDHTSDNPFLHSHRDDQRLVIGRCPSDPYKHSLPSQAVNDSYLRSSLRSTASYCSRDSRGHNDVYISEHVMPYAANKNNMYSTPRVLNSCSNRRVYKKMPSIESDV

| SMILES | IC50 [1] [µM] | IC50 (read-out: Binned Activity) [µM] |
| --- | --- | --- |
| O=C(NCc1ccncn1)c1ccc(CNS(=O)(=O)c2ccc(F)c(Cl)c2)nc1 [6-(3-chloro-4-fluorobenzenesulfon-amidomethyl)-N-(pyrimidin-4-ylmethyl)pyridine-3-carboxamide] | 10 | > 10 |
| Cc1nc(CNC(=O)c2ccc(CNS(=O)(=O)c3ccc(F)c(Cl)c3)cn2)cs1 [5-(3-chloro-4-fluorobenzenesulfon-amidomethyl)-N-[(2-methyl-1,3-thiazol-4-yl)methyl]pyridine-2-carboxamide] | 10 | > 10 |
| O=C(NCc1ncccn1)c1ccc(CNS(=O)(=O)c2ccc(F)c(Cl)c2)cn1 [5-(3-chloro-4-fluorobenzenesulfon-amidomethyl)-N-(pyrimidin-2-ylmethyl)pyridine-2-carboxamide] | 10 | > 10 |
| O=C(NCc1cocn1)c1ccc(CNS(=O)(=O)c2ccc(F)c(Cl)c2)cn1 [5-(3-chloro-4-fluorobenzenesulfon-amidomethyl)-N-(1,3-oxazol-4-ylmethyl)pyridine-2-carboxamide] | 10 | > 10 |
| O=C(NCc1ccccn1)c1ccc(CNS(=O)(=O)c2ccc(F)c(Cl)c2)nn1 [6-(3-chloro-4-fluorobenzenesulfon-amidomethyl)-N-(pyridin-2-ylmethyl)pyridazine-3-carboxamide] | 10 | > 10 |
| O=C(NCc1cncs1)c1ccc(CNS(=O)(=O)c2ccc(F)c(Cl)c2)nn1 [6-(3-chloro-4-fluorobenzenesulfon-amidomethyl)-N-(1,3-thiazol-5-ylmethyl)pyridazine-3-carboxamide] | 10 | > 10 |
| COc1cccc(CNC(=O)c2ccc(CNS(=O)(=O)c3ccc(F)c(Cl)c3)nn2)c1 [6-(3-chloro-4-fluorobenzenesulfon-amidomethyl)-N-[(3-methoxyphenyl)methyl] pyridazine-3-carboxamide] | 10 | > 10 |
| O=C(NCc1cncnc1)c1ccc(CNS(=O)(=O)c2ccc(F)c(Cl)c2)nn1 [6-(3-chloro-4-fluorobenzenesulfon-amidomethyl)-N-(pyrimidin-5-ylmethyl)pyridazine-3-carboxamide] | 10 | > 10 |
| Cc1ccc(CNC(=O)c2ccc(CNS(=O)(=O)c3ccc(F)c(Cl)c3)nc2)s1 [6-(3-chloro-4-fluorobenzenesulfon-amidomethyl)-N-[(5-methylthiophen-2-yl)methyl]pyridine-3-carboxamide] | 10 | > 10 |
| O=C(NCc1ccc(Cl)c(F)c1)c1ccc(CNS(=O)(=O)c2ccc(F)c(Cl)c2)cn1 [N-[(4-chloro-3-fluorophenyl)methyl]-5-(3-chloro-4-fluorobenzenesulfon-amidomethyl)pyridine-2-carboxamide] | 10 | > 10 |
| Cc1ccncc1CNC(=O)c1ccc(CNS(=O)(=O)c2ccc(F)c(Cl)c2)nn1 [6-(3-chloro-4-fluorobenzenesulfon-amidomethyl)-N-[(4-methylpyridin-3-yl)methyl]pyridazine-3-carboxamide] | 10 | > 10 |
| Cn1nccc1CNC(=O)c1cnc(CNS(=O)(=O)c2ccc(F)c(Cl)c2)cn1 [5-(3-chloro-4-fluorobenzenesulfon-amidomethyl)-N-[(1-methyl-1H-pyrazol-5-yl)methyl]pyrazine-2-carboxamide] | 10 | > 10 |
| Cc1ncc(CNC(=O)c2cnc(CNS(=O)(=O)c3ccc(Cl)c(F)c3)cn2)s1 [5-(4-chloro-3-fluorobenzenesulfon-amidomethyl)-N-[(2-methyl-1,3-thiazol-5-yl)methyl]pyrazine-2-carboxamide] | 10 | > 10 |
| Cc1ncc(CNC(=O)c2cnc(CNC(=O)c3cccc(F)c3)cn2)s1 [5-{[(3-fluorophenyl)formamido]methyl}-N-[(2-methyl-1,3-thiazol-5-yl)methyl]pyrazine-2-carboxamide] | 10 | > 10 |
| O=C(NCc1ccncc1)c1ccc(CNS(=O)(=O)c2ccc(F)c(Cl)c2)nc1 [6-(3-chloro-4-fluorobenzenesulfon-amidomethyl)-N-(pyridin-4-ylmethyl)pyridine-3-carboxamide] | 10 | > 10 |
| Cc1ncc(CNC(=O)c2cnc(CNC(=O)c3ccc(Cl)cc3Cl)cn2)s1 [5-{[(2,4-dichlorophenyl)form-amido]methyl}-N-[(2-methyl-1,3-thiazol-5-yl)methyl]pyrazine-2-carboxamide] | 10 | > 10 |
| Cc1ncc(CNC(=O)c2ccc(CNC(=O)c3ccc(Cl)c(Cl)c3)cn2)s1 [5-{[(3,4-dichlorophenyl)form-amido]methyl}-N-[(2-methyl-1,3-thiazol-5-yl)methyl]pyridine-2-carboxamide] | 10 | > 10 |
| Cc1nc(C)c(CNC(=O)c2ccc(CNS(=O)(=O)c3ccc(F)c(Cl)c3)nn2)s1 [6-(3-chloro-4-fluorobenzenesulfon-amidomethyl)-N-[(dimethyl-1,3-thiazol-5-yl)methyl]pyridazine-3-carboxamide] | 10 | > 10 |
| CC(=O)N1CCc2cc(S(=O)(=O)NCc3ccc(C(=O)NCc4cnc(C)s4)nc3)ccc21 [5-(1-acetyl-2,3-dihydro-1H-indole-5-sulfonamidomethyl)-N-[(2-methyl-1,3-thiazol-5-yl)methyl]pyridine-2-carboxamide] | 10 | > 10 |
| COc1ccc(CNC(=O)c2ccc(CNS(=O)(=O)c3ccc(F)c(Cl)c3)nn2)cc1 [6-(3-chloro-4-fluorobenzenesulfon-amidomethyl)-N-[(4-methoxyphenyl)methyl] pyridazine-3-carboxamide] | 10 | > 10 |
| O=C(NCc1ncccc1C(F)(F)F)c1ccc(CNS(=O)(=O)c2ccc(F)c(Cl)c2)nc1 [6-(3-chloro-4-fluorobenzenesulfon-amidomethyl)-N-{[3-(trifluoromethyl)pyridin-2-yl]methyl}pyridine-3-carboxamide] | 10 | > 10 |

Next, values leading:

| IC50 [1] [µM] | IC50 (read-out: Binned Activity) [µM] | SMILES |
| --- | --- | --- |
| 10 | > 10 | O=C(NCc1ncc(C(F)(F)F)cc1Cl)c1ccc(CNS(=O)(=O)c2ccc(F)c(Cl)c2)nc1 [6-(3-chloro-4-fluorobenzenesulfon-amidomethyl)-N-{[3-chloro-5-(trifluoromethyl)pyridin-2-yl]methyl}pyridine-3-carboxamide] |
| 10 | > 10 | Cc1cccc(CNC(=O)c2ccc(CNS(=O)(=O)c3ccc(F)c(Cl)c3)nc2)n1 [6-(3-chloro-4-fluorobenzenesulfon-amidomethyl)-N-[(6-methylpyridin-2-yl)methyl]pyridine-3-carboxamide] |
| 10 | > 10 | COc1ccc(CNC(=O)c2ccc(CNS(=O)(=O)c3ccc(F)c(Cl)c3)nc2)cn1 [6-(3-chloro-4-fluorobenzenesulfon-amidomethyl)-N-[(6-methoxypyridin-3-yl)methyl]pyridine-3-carboxamide] |
| 10 | > 10 | Cc1ncc(CNC(=O)c2ccc(CNC(=O)c3cc(Cl)ccc3F)cn2)s1 [5-{[(5-chloro-2-fluorophenyl)formamido]methyl}-N-[(2-methyl-1,3-thiazol-5-yl)methyl]pyridine-2-carboxamide] |
| 10 | > 10 | Cn1cnc(CNC(=O)c2cnc(CNS(=O)(=O)c3ccc(F)c(Cl)c3)cn2)c1 [5-(3-chloro-4-fluorobenzenesulfon-amidomethyl)-N-[(1-methyl-1H-imidazol-4-yl)methyl]pyrazine-2-carboxamide] |
|  | 1 to 10 | COc1ccc(CNC(=O)c2ccc(CNS(=O)(=O)c3ccc(F)c(Cl)c3)cn2)cn1 [5-(3-chloro-4-fluorobenzenesulfon-amidomethyl)-N-[(6-methoxypyridin-3-yl)methyl]pyridine-2-carboxamide] |
|  | 0.1 to 1 | Cc1ncc(CNC(=O)c2ccc(CNS(=O)(=O)c3ccc(F)c(F)c3)cn2)s1 [5-(3,4-difluorobenzenesulfon-amidomethyl)-N-[(2-methyl-1,3-thiazol-5-yl)methyl]pyridine-2-carboxamide] |
|  | 1 to 10 | O=C(NCc1cncc(F)c1)c1cnc(CNS(=O)(=O)c2ccc(F)c(Cl)c2)cn1 [5-(3-chloro-4-fluorobenzenesulfon-amidomethyl)-N-[(5-fluoropyridin-3-yl)methyl]pyrazine-2-carboxamide] |
|  | 1 to 10 | Cc1nnc(CNC(=O)c2ccc(CNS(=O)(=O)c3ccc(F)c(Cl)c3)cn2)s1 [5-(3-chloro-4-fluorobenzenesulfon-amidomethyl)-N-[(5-methyl-1,3,4-thiadiazol-2-yl)methyl]pyridine-2-carboxamide] |
|  | 1 to 10 | Cc1ncc(CNC(=O)c2cnc(CNS(=O)(=O)c3cc(Cl)ccc3F)c(C)n2)s1 [5-(5-chloro-2-fluorobenzenesulfon-amidomethyl)-6-methyl-N-[(2-methyl-1,3-thiazol-5-yl)methyl]pyrazine-2-carboxamide] |
